Measurements published in publication PMC6271945, “Avicequinone C Isolated from Avicennia marina Exhibits 5α-Reductase-Type 1 Inhibitory Activity Using an Androgenic Alopecia Relevant Cell-Based Assay System” (Molecules, 2014).

Assays:
[1] = biological target: T1, 5α-reductase type 1 (5α-R1) (Homo sapiens, UniProt P18405); experiment: HHDPC cell-based assay of testosterone to […]α-DHT conversion (endogenous […]α-R1), non-radioactive TLC detection
T1 construct: gene SRD5A1
T1 sequence (P18405 1-259): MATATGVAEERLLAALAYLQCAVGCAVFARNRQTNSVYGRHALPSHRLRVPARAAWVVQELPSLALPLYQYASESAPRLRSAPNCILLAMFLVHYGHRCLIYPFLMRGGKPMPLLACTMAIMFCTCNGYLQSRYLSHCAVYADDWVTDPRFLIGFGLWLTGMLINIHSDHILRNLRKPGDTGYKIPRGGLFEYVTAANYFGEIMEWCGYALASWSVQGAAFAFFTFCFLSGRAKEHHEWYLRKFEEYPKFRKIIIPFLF

[2] = biological target: T1, 5α-reductase type 1 (5α-R1); experiment: HHDPC cell-based assay of testosterone to […]α-DHT conversion (endogenous […]α-R1), TLC detection; positive control

Structure (SMILES)	IC50 [1]	HHDPC cell-based assay of testosterone to 5α-DHT conversion (endogenous 5α-R1), [2]
CC(C)(O)c1cc2c(o1)C(=O)c1ccccc1C2=O [G1, naphtho 2'-(1-hydroxy-1-methylethyl)[2,3-β]furan-1,4-dione]	38.8 ± 1.29 µM	
C[C@]12C=CC(=O)N[C@@H]1CC[C@@H]1[C@@H]2CC[C@]2(C)[C@@H](C(=O)Nc3cc(C(F)(F)F)ccc3C(F)(F)F)CC[C@@H]12 [dutasteride]		complete inhibition at 0.1 and 0.01 µg/mL; 16.5% at 0.001
